Data as given in publication PMC9090415, “Discovery of small molecule inhibitors of Plasmodium falciparum apicoplast DNA polymerase” (Journal of Enzyme Inhibition and Medicinal Chemistry, 2022).

Biological target: P. falciparum apicoplast DNA polymerase (Pf-apPOL) (Plasmodium falciparum, UniProt Q8ILY1)
Assay: Fluorescence-based high-throughput DNA polymerase assay (molecular beacon), primary screen and dose-response;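 as to % inhibition ApPOL 90': test concentration in µM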;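 as to % inhibition apPOL 180': test concentration in µM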
Format: biochemical
Details: for IC50: supplemental file 2, sheet IC50 nontoxic compounds, Pf-apPOL; for DNA Pol: 90 min, 10 µM
In short: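 Single-point screening used 10 µM compound with 20 nM polymerase, 20 nM hairpin substrate and 6 µM dNTPs for 90 min at 25 °C. Confirmatory titrations (2.5–80 µM) followed fluorescence at three times, and IC50 was derived from a fit including a cooperativity term n.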

[1] = primary screen value of the 186 hits, unit not given

P. falciparum apicoplast DNA polymerase (Pf-apPOL), sequence (Q8ILY1 entry or part of it): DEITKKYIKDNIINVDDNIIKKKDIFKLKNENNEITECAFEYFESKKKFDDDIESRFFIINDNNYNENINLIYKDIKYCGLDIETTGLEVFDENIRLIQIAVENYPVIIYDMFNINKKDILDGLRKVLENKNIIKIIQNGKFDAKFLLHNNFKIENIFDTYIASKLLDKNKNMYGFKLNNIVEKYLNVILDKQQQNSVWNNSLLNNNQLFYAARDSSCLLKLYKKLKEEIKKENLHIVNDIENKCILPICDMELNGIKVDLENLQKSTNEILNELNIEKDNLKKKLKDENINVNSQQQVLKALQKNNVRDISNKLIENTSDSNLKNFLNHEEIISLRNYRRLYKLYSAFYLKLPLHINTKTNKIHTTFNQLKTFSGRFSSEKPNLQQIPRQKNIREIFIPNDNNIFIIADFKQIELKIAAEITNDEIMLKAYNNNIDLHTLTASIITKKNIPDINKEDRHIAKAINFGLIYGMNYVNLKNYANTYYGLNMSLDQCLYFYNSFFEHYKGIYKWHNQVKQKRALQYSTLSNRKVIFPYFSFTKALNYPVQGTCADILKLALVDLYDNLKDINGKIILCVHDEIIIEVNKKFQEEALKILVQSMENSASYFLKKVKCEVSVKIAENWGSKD

Structure (SMILES): CCOc1cccc2cc(C(=O)Nc3nnc(-c4ccno4)o3)oc12 [Molecule 28]
- IC50: 7.04 µM

Structure (SMILES): N#CC(C#N)=C1SCN(c2cccc(Cl)c2)CS1 [Molecule 29, N#CC(=C1SCN(CS1)c1cccc(c1)Cl)C#N]
- DNA Pol ('DNA Pol' of the 186 hits list (screen value)): 95
- % inhibition Apo pol 10' (DRC-1, conc 2.5): 21.8228%
- % inhibition Apo pol 10' (DRC-1, conc 5): 35.73%
- % inhibition Apo pol 10' (DRC-1, conc 10): 36.478%
- % inhibition Apo pol 10' (DRC-1, conc 20): 90.158%
- % inhibition Apo pol 10' (DRC-1, conc 40): 91.3949%
- % inhibition Apo pol 10' (DRC-1, conc 80): 94.8229%
- % inhibition Apol 90' (DRC-1, 90', conc 2.5): 12.5059%
- % inhibition Apol 90' (DRC-1, 90', conc 5): 27.1845%
- % inhibition Apol 90' (DRC-1, 90', conc 10): 28.2977%
- % inhibition Apol 90' (DRC-1, 90', conc 20): 85.5173%
- % inhibition Apol 90' (DRC-1, 90', conc 40): 87.9667%
- % inhibition Apol 90' (DRC-1, 90', conc 80): 95.5447%
- % inhibition apPOL 180' (DRC-1, 180', conc 2.5): 2.521%
- % inhibition apPOL 180' (DRC-1, 180', conc 5): 13.8215%
- % inhibition apPOL 180' (DRC-1, 180', conc 10): 15.4746%
- % inhibition apPOL 180' (DRC-1, 180', conc 20): 81.5285%
- % inhibition apPOL 180' (DRC-1, 180', conc 40): 85.2905%
- % inhibition apPOL 180' (DRC-1, 180', conc 80): 94.962%
- % inhibition Apo pol 5' (DRC-2, 5', conc 2.5): 14%
- % inhibition Apo pol 5' (DRC-2, 5', conc 5): 34%
- % inhibition Apo pol 5' (DRC-2, 5', conc 10): 45%
- % inhibition Apo pol 5' (DRC-2, 5', conc 20): 55%
- % inhibition Apo pol 5' (DRC-2, 5', conc 40): 60%
- % inhibition Apo pol 5' (DRC-2, 5', conc 80): 60%
- % inhibition Apo pol 5' (DRC-2, 5', concentration 40): 60%
- % inhibition Apo pol 5' (DRC-2, 5', concentration 80): 60%
- % inhibition Apol 40' (DRC-2, 40', conc 2.5): 20%
- % inhibition Apol 40' (DRC-2, 40', conc 5): 42%
- % inhibition Apol 40' (DRC-2, 40', conc 10): 56%
- % inhibition Apol 40' (DRC-2, 40', conc 20): 65%
- % inhibition Apol 40' (DRC-2, 40', conc 40): 73%
- % inhibition Apol 40' (DRC-2, 40', conc 80): 76%
- % inhibition Apol 40' (DRC-2, 40', concentration 10): 56%
- % inhibition Apol 40' (DRC-2, 40', concentration 40): 73%
- % inhibition ApPOL 90' (DRC-2, 90', conc 2.5): 17%
- % inhibition ApPOL 90' (DRC-2, 90', conc 5): 41%
- % inhibition ApPOL 90' (DRC-2, 90', conc 10): 56%
- % inhibition ApPOL 90' (DRC-2, 90', conc 20): 66%
- % inhibition ApPOL 90' (DRC-2, 90', conc 40): 75%
- % inhibition ApPOL 90' (DRC-2, 90', conc 80): 79%
- % inhibition ApPOL 90' (DRC-2, 90', concentration 10): 56%
- % inhibition apPOL 180' (DRC-2, 180', conc 2.5): 10%
- % inhibition apPOL 180' (DRC-2, 180', conc 5): 31%
- % inhibition apPOL 180' (DRC-2, 180', conc 10): 48%
- % inhibition apPOL 180' (DRC-2, 180', conc 20): 62%
- % inhibition apPOL 180' (DRC-2, 180', conc 40): 73%
- % inhibition apPOL 180' (DRC-2, 180', conc 80): 81%
- % inhibition apPOL 180' (DRC-2, 180', concentration 40): 73%
- DNA Pol (primary screen value, "DNA Pol"): 95

Structure (SMILES): N#CC(C#N)=C1SCN(c2cccc(Cl)c2)CS1 [Molecule 29]
- IC50: 11.9 µM

Structure (SMILES): O=C(c1ccccc1)N1CCc2c(nc3cc(-c4ccccc4)[nH]n3c2=O)C1 [Molecule 30]
- IC50: 9.54 µM

Structure (SMILES): O=[N+]([O-])/C=C/c1ccc(-c2ccc(Br)cc2)o1 [Molecule 31, O=N(=O)/C=C/c1ccc(o1)c1ccc(cc1)Br]
- % inhibition Apo pol 10' (DRC-1, concentration 2.5): 11.7941%
- % inhibition Apo pol 10' (DRC-1, concentration 5): 25.8836%
- % inhibition Apo pol 10' (DRC-1, concentration 10): 48.5342%
- % inhibition Apo pol 10' (DRC-1, concentration 20): 74.9493%
- % inhibition Apo pol 10' (DRC-1, concentration 40): 80.1629%
- % inhibition Apo pol 10' (DRC-1, concentration 80): 73.881%
- % inhibition Apol 90' (DRC-1, 90', concentration 2.5): 4.734%
- % inhibition Apol 90' (DRC-1, 90', concentration 5): 14.8546%
- % inhibition Apol 90' (DRC-1, 90', concentration 10): 35.3896%
- % inhibition Apol 90' (DRC-1, 90', concentration 20): 66.0417%
- % inhibition Apol 90' (DRC-1, 90', concentration 40): 79.0677%
- % inhibition Apol 90' (DRC-1, 90', concentration 80): 80.1627%
- % inhibition apPOL 180' (DRC-1, 180', concentration 2.5): -3.116%
- % inhibition apPOL 180' (DRC-1, 180', concentration 5): 3.824%
- % inhibition apPOL 180' (DRC-1, 180', concentration 10): 20.4945%
- % inhibition apPOL 180' (DRC-1, 180', concentration 20): 51.8012%
- % inhibition apPOL 180' (DRC-1, 180', concentration 40): 73.5889%
- % inhibition apPOL 180' (DRC-1, 180', concentration 80): 81.6814%
- % inhibition Apo pol 5' (DRC-2, 5', concentration 10 (unit not given)): 31%
- % inhibition Apol 40' (DRC-2, 40', concentration 10 (unit not given)): 48%
- % inhibition Apol 40' (DRC-2, 40', concentration 20 (unit not given)): 53%
- % inhibition Apol 40' (DRC-2, 40', concentration 80 (unit not given)): 48%
- % inhibition ApPOL 90' (DRC-2, 90', concentration 5 (unit not given)): 31%
- % inhibition ApPOL 90' (DRC-2, 90', concentration 10 (unit not given)): 48%
- % inhibition apPOL 180' (DRC-2, 180', concentration 5 (unit not given)): 21%
- % inhibition apPOL 180' (DRC-2, 180', concentration 20 (unit not given)): 53%
- % inhibition Apo pol 5' (DRC-2, 5', concentration 2.5): 3.31%
- % inhibition Apo pol 5' (DRC-2, 5', concentration 5): 21%
- % inhibition Apo pol 5' (DRC-2, 5', concentration 5 (unit not given)): 21%
- % inhibition Apo pol 5' (DRC-2, 5', concentration 10): 31%
- % inhibition Apo pol 5' (DRC-2, 5', concentration 20): 26%
- % inhibition Apo pol 5' (DRC-2, 5', concentration 40): 18%
- % inhibition Apo pol 5' (DRC-2, 5', concentration 80): 2.17%
- % inhibition Apol 40' (DRC-2, 40', concentration 2.5): 6%
- % inhibition Apol 40' (DRC-2, 40', concentration 5): 33%
- % inhibition Apol 40' (DRC-2, 40', concentration 10): 48%
- % inhibition Apol 40' (DRC-2, 40', concentration 20): 53%
- % inhibition Apol 40' (DRC-2, 40', concentration 40): 54%
- % inhibition Apol 40' (DRC-2, 40', concentration 80): 48%
- % inhibition ApPOL 90' (DRC-2, 90', concentration 2.5): 4%
- % inhibition ApPOL 90' (DRC-2, 90', concentration 5): 31%
- % inhibition ApPOL 90' (DRC-2, 90', concentration 10): 48%
- % inhibition ApPOL 90' (DRC-2, 90', concentration 20): 56%
- % inhibition ApPOL 90' (DRC-2, 90', concentration 40): 60%
- % inhibition ApPOL 90' (DRC-2, 90', concentration 80): 59%
- % inhibition apPOL 180' (DRC-2, 180', concentration 2.5): -3.28%
- % inhibition apPOL 180' (DRC-2, 180', concentration 5): 21%
- % inhibition apPOL 180' (DRC-2, 180', concentration 10): 39%
- % inhibition apPOL 180' (DRC-2, 180', concentration 20): 53%
- % inhibition apPOL 180' (DRC-2, 180', concentration 40): 62%
- % inhibition apPOL 180' (DRC-2, 180', concentration 80): 66%
- DNA Pol [1]: 57
- DNA Pol (primary screen value, head "DNA Pol", unit not given): 57

Structure (SMILES): O=C(O)CCS(=O)(=O)c1ccc(-c2ccc(S(=O)(=O)CCC(=O)O)cc2)cc1 [Molecule 32]
- IC50: 5.7 µM

Structure (SMILES): COc1cc(Cl)c(C)cc1NC(=O)Cn1ccc2c(=O)[nH]ccc21 [Molecule 33, COc1cc(Cl)c(cc1NC(=O)Cn1ccc2c1cc[nH]c2=O)C]
- % inhibition Apo pol 10' (DRC-1, concentration 2.5): 1.493%
- % inhibition Apo pol 10' (DRC-1, concentration 5): 13.6047%
- % inhibition Apo pol 10' (DRC-1, concentration 10): 50.6447%
- % inhibition Apo pol 10' (DRC-1, concentration 20): 68.9678%
- % inhibition Apo pol 10' (DRC-1, concentration 40): 82.7027%
- % inhibition Apo pol 10' (DRC-1, concentration 80): 78.8716%
- % inhibition Apol 90' (DRC-1, 90', concentration 2.5): -1.924%
- % inhibition Apol 90' (DRC-1, 90', concentration 5): 4.488%
- % inhibition Apol 90' (DRC-1, 90', concentration 10): 37.9384%
- % inhibition Apol 90' (DRC-1, 90', concentration 20): 62.017%
- % inhibition Apol 90' (DRC-1, 90', concentration 40): 81.936%
- % inhibition Apol 90' (DRC-1, 90', concentration 80): 83.5925%
- % inhibition apPOL 180' (DRC-1, 180', concentration 2.5): -6.054%
- % inhibition apPOL 180' (DRC-1, 180', concentration 5): -2.934%
- % inhibition apPOL 180' (DRC-1, 180', concentration 10): 23.1917%
- % inhibition apPOL 180' (DRC-1, 180', concentration 20): 50.4837%
- % inhibition apPOL 180' (DRC-1, 180', concentration 40): 76.46%
- % inhibition apPOL 180' (DRC-1, 180', concentration 80): 83.9917%
- % inhibition Apo pol 5' (DRC-2, 5', concentration 2.5): -0.547%
- % inhibition Apo pol 5' (DRC-2, 5', concentration 5): 14%
- % inhibition Apo pol 5' (DRC-2, 5', concentration 10): 36%
- % inhibition Apo pol 5' (DRC-2, 5', concentration 20): 42%
- % inhibition Apo pol 5' (DRC-2, 5', concentration 40): 40%
- % inhibition Apo pol 5' (DRC-2, 5', concentration 80): 31%
- % inhibition Apol 40' (DRC-2, 40', concentration 2.5): -1.56%
- % inhibition Apol 40' (DRC-2, 40', concentration 5): 18%
- % inhibition Apol 40' (DRC-2, 40', concentration 10): 46%
- % inhibition Apol 40' (DRC-2, 40', concentration 20): 60%
- % inhibition Apol 40' (DRC-2, 40', concentration 40): 62%
- % inhibition Apol 40' (DRC-2, 40', concentration 80): 57%
- % inhibition ApPOL 90' (DRC-2, 90', concentration 2.5): -2%
- % inhibition ApPOL 90' (DRC-2, 90', concentration 5): 15%
- % inhibition ApPOL 90' (DRC-2, 90', concentration 10): 45%
- % inhibition ApPOL 90' (DRC-2, 90', concentration 20): 61%
- % inhibition ApPOL 90' (DRC-2, 90', concentration 40): 65%
- % inhibition ApPOL 90' (DRC-2, 90', concentration 80): 63%
- % inhibition apPOL 180' (DRC-2, 180', concentration 2.5): -9%
- % inhibition apPOL 180' (DRC-2, 180', concentration 5): 6.65%
- % inhibition apPOL 180' (DRC-2, 180', concentration 10): 35%
- % inhibition apPOL 180' (DRC-2, 180', concentration 20): 56%
- % inhibition apPOL 180' (DRC-2, 180', concentration 40): 67%
- % inhibition apPOL 180' (DRC-2, 180', concentration 80): 68%
- DNA Pol (primary screen value by plate and well): 43
- DNA Pol [1]: 43

Structure (SMILES): COc1cc(Cl)c(C)cc1NC(=O)Cn1ccc2c(=O)[nH]ccc21 [Molecule 33]
- IC50: 10.3 µM
